The target in series [1] is T1, Alpha-2A adrenergic receptor (Homo sapiens, UniProt P08913).
T1 sequence (P08913 whole entry): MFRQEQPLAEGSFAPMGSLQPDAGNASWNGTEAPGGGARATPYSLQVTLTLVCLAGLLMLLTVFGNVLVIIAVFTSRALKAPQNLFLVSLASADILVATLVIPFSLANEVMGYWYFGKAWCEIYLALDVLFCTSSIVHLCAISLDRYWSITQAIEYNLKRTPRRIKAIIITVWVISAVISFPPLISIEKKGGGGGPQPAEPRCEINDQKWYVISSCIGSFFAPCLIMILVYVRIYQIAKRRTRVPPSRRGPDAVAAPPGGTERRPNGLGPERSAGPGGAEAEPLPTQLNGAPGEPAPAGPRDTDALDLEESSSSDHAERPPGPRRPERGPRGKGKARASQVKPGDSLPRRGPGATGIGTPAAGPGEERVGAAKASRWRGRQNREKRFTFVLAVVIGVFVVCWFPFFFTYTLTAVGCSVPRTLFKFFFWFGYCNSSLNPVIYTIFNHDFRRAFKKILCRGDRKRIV
Description: Inhibition of alpha 2A adrenergic receptor (unknown origin).

Another series addresses Mu-type opioid receptor (Homo sapiens, UniProt P35372). The experiment in a line: Inhibition of mu opioid receptor (unknown origin).
The target of series [2] is Kappa-type opioid receptor (Homo sapiens, UniProt P41145). The experiment in a line: Inhibition of kappa opioid receptor (unknown origin).
A further series addresses D(2) dopamine receptor (Homo sapiens, UniProt P14416). Description: Inhibition of dopamine D2 receptor (unknown origin).
Series [3] addresses T2, Muscarinic acetylcholine receptor M2 (Homo sapiens, UniProt P08172).
T2 sequence (P08172 whole entry): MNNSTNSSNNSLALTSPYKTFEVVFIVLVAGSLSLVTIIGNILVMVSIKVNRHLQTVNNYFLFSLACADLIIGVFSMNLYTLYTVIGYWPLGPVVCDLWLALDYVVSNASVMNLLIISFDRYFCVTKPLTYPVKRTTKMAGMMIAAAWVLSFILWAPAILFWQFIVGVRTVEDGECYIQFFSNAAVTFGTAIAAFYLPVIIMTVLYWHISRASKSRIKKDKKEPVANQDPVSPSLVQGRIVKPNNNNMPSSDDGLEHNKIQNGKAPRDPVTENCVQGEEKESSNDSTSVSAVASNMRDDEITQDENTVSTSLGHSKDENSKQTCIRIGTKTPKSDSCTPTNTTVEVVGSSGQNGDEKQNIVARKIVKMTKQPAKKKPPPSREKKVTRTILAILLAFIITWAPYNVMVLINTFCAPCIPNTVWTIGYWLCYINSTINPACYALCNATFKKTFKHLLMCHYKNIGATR
Description: Inhibition of M2 mAChR receptor (unknown origin).

In series [4] the target is Neuronal acetylcholine receptor subunit alpha-7 (Homo sapiens, UniProt P36544). The experiment in a line: Inhibition of alpha7 nicotinic acetylcholine receptor (unknown origin).
Series [5] in a line: Half life in mouse at 3 mg/kg, iv measured after 8 hrs by LC-MS/MS analysis. Format: ADME, organism-based. The settings on record: in vivo.
Series [6] is described as follows: Drug concentration in mouse plasma at 30 mg/kg, po measured at 12 hrs by LC-MS analysis. Format: ADME, organism-based.
Series [7] can be described thus: AUC(0 to 8 h) in mouse plasma at 3 mg/kg, iv measured at 24 hrs by LC-MS/MS analysis. In kind it is ADME, organism-based. The arrangement: route intravenous, time 24 hrs, dose 3 mg/kg. The settings on record: in vivo.
A short description of series [8]: AUC(0 to 8 h)in mouse plasma at 3 mg/kg, po measured at 24 hrs by LC-MS/MS analysis. In kind it is ADME, organism-based. On the set-up: route oral, dose 3 mg/kg, time 24 hrs. The settings on record: in vivo.
A short description of series [9]: AUC(0 to 8 h) in mouse plasma at 30 mg/kg, po measured at 24 hrs by LC-MS/MS analysis. The arrangement: route oral, time 24 hrs, dose 30 mg/kg. Format: ADME, organism-based. The settings on record: in vivo.
The nature of series [10]: Oral bioavailability in mouse at 3 mg/kg measured at 24 hrs by LC-MS/MS analysis. Format: ADME, organism-based. The settings on record: in vivo.
The nature of series [11]: Oral bioavailability in mouse at 30 mg/kg measured at 24 hrs by LC-MS/MS analysis. In kind it is ADME, organism-based. The settings on record: in vivo.
The nature of series [12]: Volume of distribution in mouse at 3 mg/kg, measured at 24 hrs by LC-MS analysis. Format: ADME, organism-based. The settings on record: in vivo.
Series [13] is described as follows: Metabolic stability in human liver microsomes assessed compound remaining measured after 10 mins in presence of NADPH. In kind it is ADME, Microsome. The settings on record: read-out: Stability.
Series [14] can be described thus: Antagonist activity at human CXCR4 receptor expressed in CCRF-CEM cells assessed as inhibition of CXCL12-induced calcium release by calcium flux assay. Format: cell-based. Background: A change in cytosolic calcium serves as a functional read-out for many receptors and channels.
A short description of series [15]: Metabolic stability in mouse liver microsomes assessed compound remaining measured after 10 mins in presence of NADPH. Format: ADME, Microsome. The settings on record: read-out: Stability. On the technique in general: Microsomes from liver hold many membrane-bound enzymes, among them those of drug oxidation.
A short description of series [16]: Antagonist activity at mAChR (unknown origin) expressed in CCRF-CEM cells assessed as inhibition of calcium release by calcium flux assay. In kind it is cell-based. The settings on record: Homo sapiens.
Series [17] in a line: Permeability of compound at pH 7.4 incubated for 4 hrs by PAMPA assay. The settings on record: read-out: permeability. Format: ADME.
Series [18] in a line: Permeability of compound at pH 5.5 incubated for 4 hrs by PAMPA assay. In kind it is ADME. The settings on record: read-out: permeability. On the technique in general: The PAMPA barrier holds no transporters, so it reflects passive diffusion.
A further series deals with Cytochrome P450 2D6 (Homo sapiens, UniProt P10635). Description: Inhibition of recombinant human CYP2D6 using AMMC as substrate preincubated for 30 mins followed by substrate addition measured after 45 mins by fluorescence based assay. Format: ADME.
Series [19] in a line: Metabolic stability in rat liver microsomes assessed compound remaining measured after 10 mins in presence of NADPH. In kind it is ADME, Microsome. The settings on record: read-out: Stability.
Series [20] is described as follows: Cytotoxicity against human TZM-bl cells assessed as reduction in cell viability incubated for 4 hrs by […] assay. Format: toxicity, cell-based. The settings on record: read-out: TC50.
In series [21] the test system is Human immunodeficiency virus 1. Description: Antiviral activity against HIV-1 Z1800M E4.02 (R5) pseudovirus infected in human TZM-blcells assessed as reduction in viral infectivity measured after 48 hrs of postinfection by luminescence assay. In kind it is functional, organism-based. The settings on record: Human immunodeficiency virus 1, Z1800M E4.02 (R5), TZM-bl.

Series [22] has as its system Human immunodeficiency virus 1. Description: Antiviral activity against HIV-1 NL4-3(X4) pseudovirus infected in human TZM-bl cells assessed as reduction in viral infectivity measured after 48 hrs of postinfection by luminescence assay. In kind it is functional, organism-based. The settings on record: Human immunodeficiency virus 1, NL4-3(X4).
For series [23], the target named is T3, Alpha-2C adrenergic receptor (Homo sapiens, UniProt P18825).
T3 sequence (P18825 whole entry): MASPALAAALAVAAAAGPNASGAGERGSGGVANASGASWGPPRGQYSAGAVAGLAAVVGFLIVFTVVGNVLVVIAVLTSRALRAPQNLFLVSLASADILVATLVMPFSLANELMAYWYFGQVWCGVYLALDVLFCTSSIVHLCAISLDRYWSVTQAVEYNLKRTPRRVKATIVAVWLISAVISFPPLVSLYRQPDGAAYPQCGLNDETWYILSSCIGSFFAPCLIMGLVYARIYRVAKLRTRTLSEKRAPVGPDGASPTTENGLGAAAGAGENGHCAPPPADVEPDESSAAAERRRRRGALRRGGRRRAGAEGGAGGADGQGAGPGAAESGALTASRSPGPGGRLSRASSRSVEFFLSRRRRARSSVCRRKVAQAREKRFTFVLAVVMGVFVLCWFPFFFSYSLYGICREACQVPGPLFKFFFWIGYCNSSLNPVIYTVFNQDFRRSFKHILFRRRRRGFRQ
Description: Inhibition of alpha 2C adrenergic receptor (unknown origin).

Series [24] concerns the target Voltage-gated inwardly rectifying potassium channel KCNH2 (Homo sapiens, UniProt Q12809). Description: Inhibition of human ERG by [3H]]Astemizole binding assay. Format: toxicity.

One may read the IC50 as the concentration needed to halve the response being measured. For orientation: half-life means how long it takes for the measured level to halve. A high value points to slow loss. As usually defined, the bioavailability is the share of a dose that reaches the circulation, judged against a reference dose that is usually intravenous. Low values mean poor availability, high ones good availability. By Vd is commonly meant a proportionality between amount in the body and measured concentration, not a real space.

Sequence of D(2) dopamine receptor (P14416 whole entry): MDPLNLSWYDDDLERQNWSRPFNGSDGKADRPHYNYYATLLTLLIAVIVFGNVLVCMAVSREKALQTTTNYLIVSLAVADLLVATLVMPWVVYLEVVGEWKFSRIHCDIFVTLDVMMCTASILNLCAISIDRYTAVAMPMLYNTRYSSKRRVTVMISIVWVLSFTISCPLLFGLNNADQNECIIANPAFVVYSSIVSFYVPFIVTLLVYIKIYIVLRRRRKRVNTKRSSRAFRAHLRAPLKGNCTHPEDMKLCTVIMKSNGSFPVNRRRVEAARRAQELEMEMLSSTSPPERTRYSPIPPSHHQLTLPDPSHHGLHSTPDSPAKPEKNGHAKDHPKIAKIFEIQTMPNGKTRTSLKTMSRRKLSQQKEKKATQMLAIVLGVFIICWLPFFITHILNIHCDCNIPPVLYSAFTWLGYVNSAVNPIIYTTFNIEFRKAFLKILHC
Sequence of Mu-type opioid receptor (P35372 whole entry): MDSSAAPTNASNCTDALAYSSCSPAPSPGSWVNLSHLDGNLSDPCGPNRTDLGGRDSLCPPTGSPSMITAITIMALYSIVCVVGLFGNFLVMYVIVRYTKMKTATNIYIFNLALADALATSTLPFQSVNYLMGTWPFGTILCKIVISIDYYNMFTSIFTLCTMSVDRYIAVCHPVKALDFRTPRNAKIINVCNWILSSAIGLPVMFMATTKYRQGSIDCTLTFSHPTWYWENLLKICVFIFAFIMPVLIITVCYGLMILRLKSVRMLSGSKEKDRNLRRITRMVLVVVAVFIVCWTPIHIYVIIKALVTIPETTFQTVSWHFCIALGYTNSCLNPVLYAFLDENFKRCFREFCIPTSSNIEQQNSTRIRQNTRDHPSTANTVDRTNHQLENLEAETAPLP
Sequence of Neuronal acetylcholine receptor subunit alpha-7 (P36544 whole entry): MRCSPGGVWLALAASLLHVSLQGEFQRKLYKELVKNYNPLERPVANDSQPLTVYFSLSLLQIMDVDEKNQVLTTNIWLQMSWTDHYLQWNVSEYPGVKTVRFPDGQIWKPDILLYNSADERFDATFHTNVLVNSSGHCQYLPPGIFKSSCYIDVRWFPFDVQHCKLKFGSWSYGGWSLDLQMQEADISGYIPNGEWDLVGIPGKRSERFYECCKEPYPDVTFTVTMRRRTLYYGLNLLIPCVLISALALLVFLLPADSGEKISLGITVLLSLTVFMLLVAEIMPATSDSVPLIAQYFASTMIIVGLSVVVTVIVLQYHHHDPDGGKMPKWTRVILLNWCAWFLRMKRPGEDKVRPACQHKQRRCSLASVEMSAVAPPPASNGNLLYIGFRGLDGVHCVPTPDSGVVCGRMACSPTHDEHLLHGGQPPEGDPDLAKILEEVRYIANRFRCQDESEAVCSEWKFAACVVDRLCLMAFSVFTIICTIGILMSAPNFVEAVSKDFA
Sequence of Kappa-type opioid receptor (P41145 whole entry): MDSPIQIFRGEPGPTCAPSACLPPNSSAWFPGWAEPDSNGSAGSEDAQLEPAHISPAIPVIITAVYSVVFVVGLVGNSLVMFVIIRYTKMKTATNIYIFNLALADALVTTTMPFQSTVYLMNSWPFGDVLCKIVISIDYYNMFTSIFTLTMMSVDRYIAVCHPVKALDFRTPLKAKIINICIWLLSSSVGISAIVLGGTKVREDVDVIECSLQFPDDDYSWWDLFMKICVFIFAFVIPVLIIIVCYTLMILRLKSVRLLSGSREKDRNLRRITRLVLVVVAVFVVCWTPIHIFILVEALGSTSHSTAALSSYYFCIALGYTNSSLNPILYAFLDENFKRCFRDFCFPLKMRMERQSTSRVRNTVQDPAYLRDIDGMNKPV
Sequence of Voltage-gated inwardly rectifying potassium channel KCNH2 (Q12809 whole entry): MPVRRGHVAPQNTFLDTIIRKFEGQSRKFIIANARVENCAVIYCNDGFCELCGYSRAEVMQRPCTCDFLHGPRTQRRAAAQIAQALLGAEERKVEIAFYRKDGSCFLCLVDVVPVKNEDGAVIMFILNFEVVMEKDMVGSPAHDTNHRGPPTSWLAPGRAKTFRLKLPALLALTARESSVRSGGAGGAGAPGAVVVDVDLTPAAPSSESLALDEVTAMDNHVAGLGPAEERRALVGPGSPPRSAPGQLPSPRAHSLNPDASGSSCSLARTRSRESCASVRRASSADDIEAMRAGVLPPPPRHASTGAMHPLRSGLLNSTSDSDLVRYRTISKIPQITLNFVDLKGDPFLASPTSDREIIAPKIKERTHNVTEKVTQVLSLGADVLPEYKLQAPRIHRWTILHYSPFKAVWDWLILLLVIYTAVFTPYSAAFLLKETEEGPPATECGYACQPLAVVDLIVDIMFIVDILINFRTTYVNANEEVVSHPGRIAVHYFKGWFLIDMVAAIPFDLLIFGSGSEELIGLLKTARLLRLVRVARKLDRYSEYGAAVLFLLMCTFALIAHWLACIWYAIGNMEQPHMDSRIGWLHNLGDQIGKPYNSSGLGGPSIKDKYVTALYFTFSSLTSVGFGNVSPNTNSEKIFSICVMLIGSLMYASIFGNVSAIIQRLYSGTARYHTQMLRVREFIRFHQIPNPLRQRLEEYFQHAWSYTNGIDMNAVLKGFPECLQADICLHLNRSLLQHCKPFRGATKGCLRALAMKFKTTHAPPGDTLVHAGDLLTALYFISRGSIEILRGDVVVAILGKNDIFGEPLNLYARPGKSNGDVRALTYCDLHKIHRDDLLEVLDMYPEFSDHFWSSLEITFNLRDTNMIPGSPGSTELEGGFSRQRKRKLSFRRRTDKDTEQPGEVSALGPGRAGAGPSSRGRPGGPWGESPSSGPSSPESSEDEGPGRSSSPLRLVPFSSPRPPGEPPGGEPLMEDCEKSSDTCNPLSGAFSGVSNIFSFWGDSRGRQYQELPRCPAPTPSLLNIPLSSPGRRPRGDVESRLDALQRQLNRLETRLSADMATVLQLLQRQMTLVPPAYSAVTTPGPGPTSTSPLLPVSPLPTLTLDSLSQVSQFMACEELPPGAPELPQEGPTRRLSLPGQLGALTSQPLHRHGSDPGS
Sequence of Cytochrome P450 2D6 (P10635 whole entry): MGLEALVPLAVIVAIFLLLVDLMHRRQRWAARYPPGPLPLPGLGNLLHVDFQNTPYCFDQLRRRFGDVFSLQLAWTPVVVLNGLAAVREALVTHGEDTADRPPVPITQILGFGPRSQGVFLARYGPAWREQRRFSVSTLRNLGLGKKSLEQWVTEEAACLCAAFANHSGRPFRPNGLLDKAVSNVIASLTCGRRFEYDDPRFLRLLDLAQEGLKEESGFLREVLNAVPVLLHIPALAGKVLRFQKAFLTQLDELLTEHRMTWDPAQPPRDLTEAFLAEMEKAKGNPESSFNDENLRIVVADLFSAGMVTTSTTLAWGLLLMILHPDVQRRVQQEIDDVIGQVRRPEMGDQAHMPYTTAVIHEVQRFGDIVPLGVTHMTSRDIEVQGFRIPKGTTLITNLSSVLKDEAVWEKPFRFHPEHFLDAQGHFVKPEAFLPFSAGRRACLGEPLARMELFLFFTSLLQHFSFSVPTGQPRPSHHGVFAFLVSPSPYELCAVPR

Take `NCCCCN(Cc1nc2ccccc2[nH]1)[C@H]1CCCc2cccnc21` [MAVORIXAFOR]: the IC50 was over 30 µM in series [1]; 12 µM against Mu-type opioid receptor; over 30 µM in [2]; 4.1 µM on D(2) dopamine receptor; 7.5 µM in series [3]; over 30 µM in series [4]. The half-life in series [5] is 3.09 h. The same compound returned a concentration at 12 h in series [6] of 2.2 ng/mL. Also, the results for the AUC in series [7], in series [8] and in series [9] were 415 h/ng/mL, 35.1 h/ng/mL and 101 h/ng/mL, respectively. The bioavailability in series [10] stood at 2.54%; in series [11] it was 2.42%. This compound gave a Vd in series [12] of 32.2 L/kg.
With `CN(CCCCN(C[C@H]1Cc2ncccc2CN1)[C@H]1CCCc2cccnc21)C1CCOCC1`, the remaining at 10 min in series [13] came to 100%; in series [15] it was 51%; in [19] it was 64%. For the same compound, the IC50 is 0.11 µM in series [14]; over 33 µM in series [16]; over 20 µM on Cytochrome P450 2D6; over 10 µM in series [21]; 0.006 µM in series [22]; 28 µM in series [1]. The IC50 in series [23] was 8.4 µM; at Mu-type opioid receptor, over 30 µM; in series [2], 8.9 µM; against D(2) dopamine receptor, over 30 µM; in series [3], over 30 µM; in series [4] it was over 30 µM. The compound further registered an IC50 in [24] of over 50 µM. Besides, the Papp at 4 h in series [17] was 49 ×10⁻⁶ cm/s; in series [18], 1.5 ×10⁻⁶ cm/s. In [20], the CC50 at 4 h is over 10 µM.
Take `c1cnc2c(c1)CN[C@@H](CN(CCCCNC1COC1)[C@H]1CCCc3cccnc31)C2`: the remaining at 10 min in [13] was found to be 97%; in series [15], 41%; in series [19] it was 27%. Besides, the IC50 in series [14] was 0.16 µM; in series [16] it was over 33 µM; at Cytochrome P450 2D6, over 20 µM; in series [21], over 10 µM; in [22], 0.02 µM; in [1], 24 µM. Moreover, the IC50 in [23] is 8.8 µM; against Mu-type opioid receptor it was 21 µM; in series [2], 10.1 µM; at D(2) dopamine receptor, over 30 µM; in [3], over 17 µM; in series [4], over 30 µM. Also, the IC50 in series [24] worked out at 11 µM. Also, the Papp at 4 h was 30 ×10⁻⁶ cm/s in [17] and 0.7 ×10⁻⁶ cm/s in series [18]. Further, in series [20], the CC50 at 4 h is over 10 µM.

The values above are taken from ChEMBL document CHEMBL5046278, “Synthesis and Evaluation of Novel Tetrahydronaphthyridine CXCR4 Antagonists with Improved Drug-like Profiles” (J Med Chem, 2022).
